According to paper PMC6091370, “Preclinical Evaluation of [^18F]LCATD as a PET Tracer to Study Drug-Drug Interactions Caused by Inhibition of Hepatic Transporters” (Contrast Media & Molecular Imaging, 2018):
Several values for one entry are separate records, joined by “and”; a condition that tells them apart may be missing. Identical values can stand only once.

What was measured:
[1] = Dynamic PET/CT imaging of hepatic uptake and biliary excretion of [18F]LCATD in rats; assay type: in vivo, rat; settings: for CLuptake,in vivo (in vivo hepatic uptake clearance): Patlak integration plot 0–3 min; for CLuptake,in vivo (in vivo hepatic uptake clearance) / t max (time to maximum peak concentration in liver) / AUCbile 0–10 min (radioactivity in the gastrointestinal tract) / AUCliver 0–5 min / AUCliver 0–30 min / CLint,bile (intrinsic biliary clearance of the radiotracer) / Kp liver 0−5 min (apparent liver-to-blood AUC0–5 min ratio) / Cmax,liver (maximum measured activity in the liver): n=3
Description: PET scans were performed with a preclinical PET/CT SEDECAL ARGUS scanner (SEDECAL, Spain) housed in a temperature-controlled suite. The scanner has two 11.8 cm diameter rings of photoswitch detectors coupled to position-sensitive photomultiplier tubes, giving a 4.8 cm axial and 7.5 cm transaxial field of view (FOV). All animals were cannulated (Venisystem Butterfly, Abbott Ireland) in the tail vein for tracer injection under general anaesthesia with isoflurane (IsoFlo 100% w/w, Abbott Laboratories Ltd) 2.5% (2 L·min^−1 oxygen flow). Animals were divided into three groups: control group (administered with [ ^18 F]LCATD only, 3 animals), rifamycin SV-treated group (3 animals) and fusidate-treated group (3 animals). All the animals were scanned in supine position. At the start of the scan, [ ^18 F]LCATD (5–15 MBq per body) was injected as a single bolus into the tail vein. Administered radioactivity was measured as the net counts in the syringe before and after the injection with an ionization chamber (Capintec CRC-15PET; Ramsey, New Jersey). The mass amount of [ ^18 F]LCATD administered per animal was estimated to be between 0.2 and 1 nmol. For inhibition experiments, rifamycin SV was administrated 45 minutes before the start of the scan at a dose of 50mg·Kg^−1 (intraperitoneally) and at the time of the tracer injection at a dose of 12.5 mg·Kg^−1 (intravenously). For the in vivo assessment of the inhibitory effect of sodium fusidate on the hepatobiliary transport of the tracer, the drug was administrated at a dose of 20 mg·Kg^−1 (intraperitoneally) 30 minutes before the scan and at a dose of 10 mg·Kg^−1 (intravenously) after 15 minutes from the tracer injection. Emission scans in 3D list-mode were acquired for 30 minutes (with a FOV encompassing part of the thorax and the intestine) followed by a 5 minutes CT scan. PET acquisitions were obtained with an energy window set to 250–700 keV and corrections for dead-time, activity decay, attenuation, random, and scatter counts were applied (using the manufacturer' software). The dynamic images were obtained by sorting the list mode data into the following time frames: 6 × 10 s, 8 × 30 s, 10 × 60 s, and 3 × 300 s, and images were reconstructed with a FORE/2D-OSEM reconstruction algorithm (provided by the manufacturer). Sampling at shorter intervals during early time-points enabled us to detect rapid increments of tracer uptake in the liver and intestine. […] A 5-minute PET scan of the injection site at the end of the CT was obtained to ensure successful intravenous injection. Cross calibration between the ionization chamber and the PET scanner was carried out by using a cylindrical phantom made of Perspex with internal diameter of 43 mm and length of 37 mm. 10 to 20 minute PET scans of the phantom filled with an average of about 4.20 MBq of [ ^18 F]LCATD in 60 g of water were acquired (average dead-time value 4%).
The registered PET and CT images were transferred from the scanner to a processing workstation, and subsequent analysis was carried out using Pmod (Pmod Technologies, CH) version 3.2. Regions of interest (ROIs) corresponding to abdominal aorta, liver, and gastrointestinal tract were defined via a combination of manual and threshold methods (Supplementary Figure 1 and movie) using PMOD software (PMOD Technologies). The stomach was included in the gastrointestinal ROI to include the amount of bile that might have refluxed from the duodenum into the stomach.
Uptake hepatic clearance CLuptake,in vivo was calculated by integration plots obtained applying the Patlak method in Pmod (Pmod Technologies, CH) version 3.2, limiting the linear fit to the uptake phase (0–3 min).
Intrinsic biliary clearance of the radiotracer CLint,bile was determined as proposed by Takashima et al. by quantification of the radiotracer in the liver and the intestine (as amount of radiotracer excreted into the bile).

[2] = Postmortem biodistribution of the tracer (gamma counting, 50 min postinjection); assay type: in vivo, rat; settings: for activity in the terminal blood sample versus control: p < 0.05
Description: Samples of the liver, heart, and kidney were collected at the end of the PET-CT scan (after euthanasia) and homogenised with methanol (80% in water, 5 mL per gram of biological sample) by means of a homogenizer. Samples were stored in preweighed plastic vials. Terminal blood was collected by cardiac puncture just before euthanasia. The activity of the homogenates and blood samples was measured by means of a precalibrated gamma counter as soon as possible after the PET experiment.

[3] = Postmortem metabolites analysis by radio-HPLC; assay type: in vivo, rat; settings: 50 min postinjection
Description: Analysis of metabolites in the blood, liver, and bile (extracted from the intestine) was performed via radio-HPLC. Blood samples, collected by cardiac puncture at the end of the PET-CT scan, were treated with an equal volume of acetonitrile, centrifuged for 1 minute at 1000 rpm and the supernatant was injected in radio-HPLC (Shimadzu Prominence HPLC system equipped with a PDA UV detector and HERM LB500 activity detector and Phenomenex Luna C18 column, 5 μm, 100 Å, 250 × 4.6 mm, injection volume 20 µL, PBS/CH3CN 60 : 40, isocratic elution, flow: 1 mL·min^−1). Samples of the liver and duodenum were collected at the end of the PET-CT scan (after euthanasia) homogenated with methanol (80% in water, 5 mL per gram of biological sample) by means of a homogenizer and centrifuged for 1 minute at 1000 rpm and the supernatant was injected in radio-HPLC.

OATP1B1 [4] = tested on: OATP1B1; parameters: method as in PMID 28011201; settings: in vitro; cited from earlier work
NTCP [5] = tested on: NTCP; parameters: method as in PMID 28011201; settings: in vitro; cited from earlier work
OATP1B3 = tested on: OATP1B3; parameters: method as in PMID 28011201; settings: in vitro; cited from earlier work
BSEP [6] = tested on: BSEP; parameters: method as in PMID 28011201; settings: in vitro; cited from earlier work
[7] = parameters: method as in PMID 28011201; settings: in vitro; cited from earlier work
MRP2 transporter = tested on: MRP2 transporter; parameters: method as in PMID 27676153; settings: 0.3–300 µM, increased efflux of LTC4, MRP2 transfected membrane vesicles; cited from earlier work
OATP1B1 [8] = settings: cited from earlier work
NTCP [9] = settings: cited from earlier work
BSEP [10] = settings: read-out: IC50 for BSEP; cited from earlier work
[11] = rifamycin SV-treated rats (total dose 62.5 mg·Kg^−1)

## C[C@H](CCC(=O)NC(Cc1cn(CCCC[18F])nn1)C(=O)O)[C@H]1CC[C@H]2[C@@H]3CC[C@@H]4C[C@H](O)CC[C@]4(C)[C@H]3CC[C@]12C (some centres unmarked) [[ ^18 F]LCATD, LithoCholic Acid Triazole Derivative]
[1]; control rats
  activity in the liver 2 minutes after tracer injection: 14.2 ± 0.8%
  maximum activity recorded in the liver: 14.2 ± 0.8 % of the injected dose
  residual activity in the liver after 30 minutes: 1.04 ± 0.17 % of the injected dose
  AUCbile 0–10 min (radioactivity in the gastrointestinal tract): 89 ± 1 % ID·min·mL^−1
  AUCliver 0–5 min: 58 ± 1 % ID·min·mL^−1
  AUCliver 0–30 min: 110 ± 15 % ID·min·mL^−1
  CLint,bile (intrinsic biliary clearance of the radiotracer): 0.17 ± 0.03 mL/min/g
  Kp liver 0−5 min (apparent liver-to-blood AUC0–5 min ratio): 3.64 ± 0.09
[1]; control rats, image-derived blood input
  CLuptake,in vivo (in vivo hepatic uptake clearance): 2.09 ± 0.27 mL/min/g
[1]; control rats, [18F]LCATD only, iv bolus
  t max (time to maximum peak concentration in liver): 2.25 min
[1]; fusidate-treated rats
  activity in the liver after 30 minutes: 1.02 ± 0.02 % of the injected dose
  CLuptake,in vivo (in vivo hepatic uptake clearance): 1.40 ± 0.13^∗ mL·min^−1·g^−1
  AUCbile 0–10 min (radioactivity in the gastrointestinal tract): 93 ± 19 % ID·min·mL^−1
  AUCliver 0–5 min: 48 ± 0.3^∗ % ID·min·mL^−1
  AUCliver 0–30 min: 89 ± 11 % ID·min·mL^−1
  CLint,bile (intrinsic biliary clearance of the radiotracer): 0.36 ± 0.03^∗ mL·min^−1·g^−1
  Cmax,liver (maximum measured activity in the liver): 11.5 ± 0.3^∗ % ID·mL^−1
  Kp liver 0−5 min (apparent liver-to-blood AUC0–5 min ratio): 2.451 ± 0.016
[1]; fusidate-treated rats (20 mg·Kg^−1 ip 30 min before scan + 10 mg·Kg^−1 iv 15 min after tracer injection)
  t max (time to maximum peak concentration in liver): 2.25 min
[1]; fusidate-treated rats (30 mg·Kg^−1)
  maximum activity recorded in the liver: 11.5 ± 0.3 % of the injected dose
[1]; rifamycin SV-treated rats
  activity in the liver 2 minutes after tracer injection: 8.0 ± 0.6%
  activity in the liver after 30 minutes: 1.87 ± 0.13 % of the injected dose
  CLuptake,in vivo (in vivo hepatic uptake clearance): 0.71 ± 0.05^∗ mL·min^−1·g^−1
  AUCbile 0–10 min (radioactivity in the gastrointestinal tract): 53 ± 3^∗ % ID·min·mL^−1
  AUCliver 0–5 min: 44 ± 4^∗ % ID·min·mL^−1
  AUCliver 0–30 min: 139 ± 9 % ID·min·mL^−1
  CLint,bile (intrinsic biliary clearance of the radiotracer): 0.12 ± 0.03 mL/min/g
  Cmax,liver (maximum measured activity in the liver): 10.2 ± 0.9^∗ % ID·mL^−1
  Kp liver 0−5 min (apparent liver-to-blood AUC0–5 min ratio): 2.07 ± 0.17
[1]; rifamycin SV-treated rats (50 mg·Kg^−1 ip 45 min before scan + 12.5 mg·Kg^−1 iv at tracer injection)
  t max (time to maximum peak concentration in liver): 3.75 min
[1]; [11]
  delay of t max relative to control rats: 1.5 min
  maximum activity recorded in the liver: 10.2 ± 0.9 % of the injected dose and 10.2 ± 1.0 % of the injected dose
[1]; sodium fusidate-treated rats
  activity in the liver 2 minutes after tracer injection: 11.4 ± 0.4%
[2]; fusidate-treated rats
  activity in the terminal blood sample versus control: significantly increased
[2]; postmortem
  activity in the kidneys: < 0.1 % of the injected dose
[2]; rifamycin SV-treated rats
  activity in the terminal blood sample versus control: significantly increased
[3]; in vivo, rat
  metabolic stability of the tracer: at least 90%
[3]; radio-HPLC, intestine extracts of two control animals
  share of activity in intestine extracts as twin peak matching [18F]LCATD: over 90%
OATP1B1 [4]
  transport by uptake transporter OATP1B1: substrate
NTCP [5]
  transport by uptake transporter NTCP: substrate
OATP1B3
  transport by OATP1B3: low affinity substrate
BSEP [6]
  transport by efflux transporter BSEP: excreted into the bile via the efflux transporter BSEP
[7]
  passive permeability: low

## CC(=O)O[C@H]1C[C@@]2(C)[C@@H](C[C@@H](O)[C@H]3[C@@]4(C)CC[C@@H](O)[C@@H](C)[C@@H]4CC[C@@]32C)/C1=C(\CCC=C(C)C)C(=O)O [fusidic acid]
MRP2 transporter
  effect on MRP2 transporter (canalicular efflux) in vitro: stimulate

## CO[C@H]1/C=C/O[C@@]2(C)Oc3c(C)c(O)c4c(O)c(cc(O)c4c3C2=O)NC(=O)/C(C)=C\C=C\[C@H](C)[C@H](O)[C@@H](C)[C@@H](O)[C@@H](C)[C@H](OC(C)=O)[C@@H]1C [rifamycin SV]
OATP1B1 [8]
  IC50: 0.2 to 0.4 µM
NTCP [9]; read-out: K i for NTCP
  Ki: > 63 µM
BSEP [10]
  IC50: 6.3 µM

## CC(=O)O[C@H]1C[C@@]2(C)[C@@H](C[C@@H](O)[C@H]3[C@@]4(C)CC[C@@H](O)[C@@H](C)[C@@H]4CC[C@@]32C)/C1=C(\CCC=C(C)C)C(=O)O [sodium fusidate]
OATP1B1 [8]
  IC50: 1.6 to 35 µM
NTCP [9]
  IC50: 44 µM
BSEP [10]
  IC50: 3.8 to 11.5 µM
